What was measured:
[1] = test system: saccharase/isomaltase (SI) enzyme complex; assay: Cleavability by small-intestine α-glucosidases, SI complex; conditions: 2 hours, 37° C.
Procedure: The saccharase/isomaltase (SI) and glucoamylase/-maltase (GM) enzyme complexes were isolated from porcine small intestine by the method of H. Heymann (Dissertation, Hannover, 1991).
• triethanolamine (TRA) buffer, 0.1 M, pH 7.0 • saccharide, 1% strength solution in TRA buffer • maltose or sucrose, as control substances, 1% strength in TRA buffer • mucosa enzyme, dissolved in TRA buffer Reaction Mixture:
1.2 ml of the carbohydrate solution, at a controlled temperature of 37° C., were admixed with 0.7 U of the saccharase/isomaltose or glucoamylase/maltase enzyme complex, respectively, at t=0. Mixing was followed by incubation at 37° C. The reaction was stopped after 2 hours by heating at 95° C. for 15 minutes. The monosaccharides formed and also the test substances used were assayed by HPAEC.

[2] = Stability in the stomach: rate of hydrolysis at pH 2.0; format: physicochemical; conditions: pH 2.0 (0.01 M HCl), 37° C., 1% solution
Procedure: The stability of a substance on passage through the stomach can be ascertained by determining the rate of hydrolysis at a pH of 2.0, using sucrose and 1-kestose as controls.
Samples were taken from the reaction mixture after 60, 120 and 180 minutes. They were analyzed by means of HPAEC techniques.
Report as hydrolysis rates in %

[3] = test system: glucoamylase/maltase (GM) enzyme complex; assay: Cleavability by small-intestine α-glucosidases, GM complex; format: in vitro ADME, porcine; conditions: 2 hours, 37° C.
Procedure: Mixing was followed by incubation at 37° C.

OC[C@H]1O[C@@](CO)(O[C@H]2O[C@H](CO)[C@@H](O)[C@H](O)[C@H]2O)[C@@H](O)[C@@H]1O [Sucrose, sucrose]
hydrolysis by the SI enzyme complex [1]: virtually complete hydrolysis
hydrolysis rate ([2]; incubation time 0 min.): 0%
hydrolysis rate ([2]; incubation time 60 min.): 2%
hydrolysis rate ([2]; incubation time 120 min.): 5%
hydrolysis rate ([2]; incubation time 180 min.): 8%

OC[C@H]1O[C@@](CO)(OC[C@@]2(O[C@H]3O[C@H](CO)[C@@H](O)[C@H](O)[C@H]3O)O[C@H](CO)[C@@H](O)[C@@H]2O)[C@@H](O)[C@@H]1O [1-Kestose, 1-kestose]
hydrolysis rate ([2]; incubation time 0 min.): 0%
hydrolysis rate ([2]; incubation time 60 min.): 11%
hydrolysis rate ([2]; incubation time 120 min.): 25%
hydrolysis rate ([2]; incubation time 180 min.): 36%

OC[C@H]1O[C@H](O[C@H]2[C@H](O)[C@@H](O)C(O)O[C@@H]2CO)[C@H](O)[C@@H](O)[C@@H]1O (mixture of isomers) [Maltose, maltose]
hydrolysis by the GM enzyme complex [3]: virtually complete hydrolysis
hydrolysis by the SI enzyme complex [1]: virtually complete hydrolysis

From patent US20050222406A1, “Condensed palatinose in hydrogenated form” (priority 2002, published 2005)
